From article PMC7496508, “Modular Medical Imaging Agents Based on Azide–Alkyne Huisgen Cycloadditions: Synthesis and Pre‐Clinical Evaluation of ^18F‐Labeled PSMA‐Tracers for Prostate Cancer Imaging” (Chemistry (Weinheim an Der Bergstrasse, Germany), 2020)
Values joined by “and” are separate entries in the source; they are usually repeats but may differ in a detail not shown here. Identical values can stand only once. Values belong to the molecule of their own block, whether it stands above or below them.

Legend:
PSMA [1] = target: T1, PSMA (Homo sapiens, UniProt Q04609); assay: cell-based competitive binding radioassay with [68Ga]PSMA-11 as radioligand on LNCaP cells
T1 construct: host or cells: LNCaP cells
Method: To compare the binding affinity of F‐PSMA‐MIC01 with „gold standard“ PSMA‐tracers, the same assay was performed using the precursor of [^68Ga]PSMA‐11 (Figure 2 D).
Table S3. Counts per minute (CPM) of the 3 indidicually measured triplicates of [18F]PSMA-MIC01 of n- […]
Octanol (CPM) PBS (CPM) BLK (CPM) LogD Mean SD
Prostate cancer cell lines PC-3 and LNCaP were obtained from the American Type Culture Collection (ATCC, Manassas, VA). Cells were cultured in RPMI-1640 (Lonza, Swiss), supplemented with 10 % fetal calf serum (FCS, Thermo Scientific Waltham, MA) at 37°C in a humidified 5 % CO2 atmosphere. To enhance adherence of LNCaP cells tissue culture flasks and/or well plates were pre-coated with poly-D-lysine (Merck) according manufacture protocol. Cells were regularly checked for mycoplasma infection.
6.1. Cell binding studies.
For the determination of the binding affinity, a competitive binding radioassay was performed.
Two 24 well plates were incubated with 50.000 cells 3 to 4 days prior to the cell experiments.
After washing the cells twice with warm PBS, new medium was added. For the binding […]
cold reference compound F-PSMA-MIC01 were added to the wells shortly before 50 µL of the radioligand [68Ga]PSMA-HBED-CC or [18F]PSMA-1007 to reach a final volume of 500 µL in each well. After incubation of 90 min at 37°C under humidified conditions the cells were washed twice with ice-cold PBS to remove unbound tracer. Cells were detached from the wells using Trypsin supplemented with 25 % EDTA and incubated until cells were completely detached. […] The remaining activity in the cells were measured in a γ-counter. Afterwards, the cells were counted in a 1:1 solution of cell suspension and Trypan Blue. The tracer uptake was calculated using Microsoft Excel and corrected for the average number of cells and averaged. The logIC50 value was calculated using the non-linear regression algorithm for a one-site FITlogIC50 using PrismGraphPad 7.2. The graphs represented show the average of the three individual experiments, while the mentioned logIC50 was calculated from the mean of the three

PSMA [2] = target: T1, PSMA; assay: competitive binding radioassay with [18F]PSMA-1007 as radioactive competitor on LNCaP cells
Method: During the pre‐clinical evaluation of [^18F]PSMA‐MIC01, many hospitals including the University Medical Center Groningen changed from using [^68Ga]PSMA‐11 to [^18F]PSMA‐1007. Therefore, the binding affinities for the 2nd generation PSMA‐tracers‐tracers were determined in a radioassay using [^18F]PSMA‐1007 as radioactive competitor (Figure 1 D). page 20: Table S3. Counts per minute (CPM) of the 3 indidicually measured triplicates of [18F]PSMA-MIC01 of n- octanol and PBS Octanol (CPM) PBS (CPM) BLK (CPM) LogD Mean SD […] No 1.2 2995.66 4176463.25 58.39 -3.15 […] No 2.3 1020.97 1916376.47 30.41 -3.29 -3.22 0.09 6. Cell culture. Prostate cancer cell lines PC-3 and LNCaP were obtained from the American Type Culture Collection (ATCC, Manassas, VA). Cells were cultured in RPMI-1640 (Lonza, Swiss), supplemented with 10 % fetal calf serum (FCS, Thermo Scientific Waltham, MA) at 37°C in a humidified 5 % CO2 atmosphere. To enhance adherence of LNCaP cells tissue culture flasks and/or well plates were pre-coated with poly-D-lysine (Merck) according manufacture protocol. Cells were regularly checked for mycoplasma infection. 6.1. Cell binding studies. For the determination of the binding affinity, a competitive binding radioassay was performed. Two 24 well plates were incubated with 50.000 cells 3 to 4 days prior to the cell experiments. After washing the cells twice with warm PBS, new medium was added. For the binding […] cold reference compound F-PSMA-MIC01 were added to the wells shortly before 50 µL of the radioligand [68Ga]PSMA-HBED-CC or [18F]PSMA-1007 to reach a final volume of 500 µL in each well. After incubation of 90 min at 37°C under humidified conditions the cells were washed twice with ice-cold PBS to remove unbound tracer. Cells were detached from the wells using Trypsin supplemented with 25 % EDTA and incubated until cells were completely detached. 900 µL of medium was added and cells were transferred into tubes. The remaining activity in the cells were measured in a γ-counter. Afterwards, the cells were counted in a 1:1 solution of cell suspension and Trypan Blue. The tracer uptake was calculated using Microsoft Excel and corrected for the average number of cells and averaged. The logIC50 value was calculated using the non-linear regression algorithm for a one-site FITlogIC50 […] The graphs represented show the average of the three individual experiments, while the mentioned logIC50 was calculated from the mean of the three experiments; 19

LNCaP (PSMA+) xenografts = assay: ex vivo organ distribution, LNCaP xenograft mice; type: in vivo, Balb/c nude mice; conditions: LNCaP (PSMA+) xenograft, dissected after PET scan
Method: All groups were evaluated by visual assessment of the PET image and the percentage injected dose per gram (%ID g^−1).
The animal experiments were all performed according to the ethical guidelines and approved by the local animal welfare committee of the University of Groningen (IvD number 15166-06-001. All animals were caged separately in individually ventilated cages.
7-12 week old immune deficient Balb/c nude mice were inoculated with 200 µL of a 1:1 suspension of medium containing approximately 4 x10^6 LNCaP cells (PSMA positive cells) or 5 x 10^6 PC3 cells (PSMA-negative cells) in RPMI-1640, and Matrigel Basement Membrane Matrix High concentration. The cells were subcutaneously inoculated on the right shoulder.
After 3 to 5 weeks for LNCaP-xenografts, 2-3 weeks for PC3-xenografts or when a tumor size of 1cm3 was reached, the animals were transported to the PET imaging facility. For the […]
prepared and 100 µL were injected via penile vein injection 30 min prior to the tracer injection. Animals were anesthetized at 5 % isoflurane and maintained under 2 % isoflurane enriched with O2. The dynamic PET scan was started within 5 min after tracer injection with an acquisition time of 90 min. The static scan was performed 60 min after tracer injection with an acquisition time of 30 min.
7.2. Organ distribution and Metabolite analysis.
After sacrificing the animals, the organs were dissected and measured in a γ-counter. The obtained CPM’s were normalized to %ID/g (Table shown in main text). […]
In order to check for the significant differences, we also checked for the Cohen’s d, a measurement to determine the effect size. It is calculated on the following formula:
Cohen′sD = Mean1− Mean2 . […]

LNCaP tumor = test system: LNCaP tumor; parameters: method as in PMID 27789722; conditions: cited from earlier work
[3] = distribution coefficient logD, n-octanol/PBS; type: physicochemical; conditions: n-octanol/PBS, pH 7.4, n-octanol/PBS pH 7.4; overall mean
Method: page 19: Figure S3: HPLC purification of [18F]PSMA-MIC02 (A) and after 4 h (B). 5. Distribution coefficient LogD. […] cup. 100 µL of the formulated final solution of [18F]PSMA-MIC01 or [18F]PSMA-MIC02 was added and vortexed for 1 minute and centrifuged for 5 min at […]. The different layers were separated and 100 µL of each layer were measured on a γ-counter. Based on the counts per minute (CPM) of each fraction, the partition coefficient was measured with the following formula: log(CPMoctanol/CPMPBS). The obtained data are as followed. Table S2. Counts per minute (CPM) of the 3 indidicually measured triplicates of [18F]PSMA-MIC01 of n- octanol and PBS. Octanol (CPM) PBS (CPM) BLK (CPM) LogD Mean SD […] No 1.2 2823.43 2715328.33 93.59 -2.99 […] No 2.3 394.49 640463.84 93.59 -3.21 […] No 3.2 3690.69 2357291.58 50.84 -2.81 No 3.3 5848.38 3956671.48 52.31 -2.83 -3.01 0.22 18 (1 picture or pasted object on this page, not shown here)

[4] = given as logIC50, single experiments, radioligand [18F]PSMA-1007, read-out: logIC50, individual experiments (converted)

T1 sequence (Q04609 whole entry): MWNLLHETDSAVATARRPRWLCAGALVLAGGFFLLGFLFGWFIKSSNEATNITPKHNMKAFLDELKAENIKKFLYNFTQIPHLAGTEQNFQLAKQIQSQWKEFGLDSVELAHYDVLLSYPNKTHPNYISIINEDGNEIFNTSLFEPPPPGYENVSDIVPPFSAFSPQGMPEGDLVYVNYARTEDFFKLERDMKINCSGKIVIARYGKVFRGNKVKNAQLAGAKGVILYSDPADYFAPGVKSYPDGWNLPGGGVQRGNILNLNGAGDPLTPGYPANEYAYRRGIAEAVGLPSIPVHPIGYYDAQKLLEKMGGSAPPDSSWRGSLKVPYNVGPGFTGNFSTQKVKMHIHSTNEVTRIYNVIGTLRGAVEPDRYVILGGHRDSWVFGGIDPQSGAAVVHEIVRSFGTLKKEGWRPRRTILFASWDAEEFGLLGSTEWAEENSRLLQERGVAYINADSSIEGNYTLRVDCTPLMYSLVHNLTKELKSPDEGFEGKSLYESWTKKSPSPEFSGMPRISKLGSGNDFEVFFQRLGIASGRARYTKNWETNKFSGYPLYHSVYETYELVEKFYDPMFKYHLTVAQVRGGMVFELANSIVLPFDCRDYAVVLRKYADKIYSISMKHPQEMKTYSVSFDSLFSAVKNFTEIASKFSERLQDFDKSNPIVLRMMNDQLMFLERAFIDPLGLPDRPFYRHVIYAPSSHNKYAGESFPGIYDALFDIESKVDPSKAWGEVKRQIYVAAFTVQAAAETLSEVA

IC50 (PSMA [1]; given as logIC50, single experiments, radioligand [68Ga]PSMA-11, read-out: logIC50, individual experiments (No 1-3) (converted)): 57.5 nM and 138 nM and 257 nM
IC50 (PSMA [1]; printed as logIC50 (negative values), mean of three experiments, radioligand [68Ga]PSMA-11, 90 min 37°C, read-out: logIC50 (converted)): 129 nM
IC50 (PSMA [2]; [4]): 363 nM and 851 nM and 219 nM
Structure (SMILES): O=C(O)CC[C@H](NC(=O)N[C@@H](CCCCNC(=O)c1ccc(-c2cn(CCOCCOCCF)nn2)cc1)C(=O)O)C(=O)O [F-PSMA-MIC01]

logIC50, individual experiments (No 1-3) (PSMA [1]; given as logIC50, single experiments, radioligand [68Ga]PSMA-11, listed as PSMA-11 precursor): -7.12 and -7.03 and -7.53
Structure (SMILES): O=C(O)CCc1ccc(O)c(CN(CCN(CC(=O)O)Cc2cc(CCC(=O)NCCCCCC(=O)NCCCC[C@H](NC(=O)N[C@@H](CCC(=O)O)C(=O)O)C(=O)O)ccc2O)CC(=O)O)c1 [precursor of PSMA-11, reference compound]

IC50 (PSMA [2]; [4]): 44.7 nM and 45.7 nM and 30.9 nM
Structure (SMILES): O=C(O)CC[C@H](NC(=O)N[C@@H](CCCCNC(=O)c1ccc(-c2cn(CCOCCOCCOc3ccc(CCF)cc3)nn2)cc1)C(=O)O)C(=O)O [F-PSMA-MIC02]

IC50 (PSMA [2]; [4]): 245 nM and 151 nM and 490 nM
Structure (SMILES): O=C(O)CC[C@H](NC(=O)N[C@@H](CCCCNC(=O)c1ccc(Cn2cc(COCCOCCOc3ccc(CCF)cc3)nn2)cc1)C(=O)O)C(=O)O [F-PSMA-MIC04]

IC50 (PSMA [2]; printed as logIC50 (negative values), mean of n=3 (MIC03 n=4), radioligand [18F]PSMA-1007, read-out: logIC50 (converted)): 275 nM
Structure (SMILES): O=C(O)CC[C@H](NC(=O)N[C@@H](CCCCNC(=O)c1ccc(Cn2cc(COCCOCCF)nn2)cc1)C(=O)O)C(=O)O [F-PSMA-MIC03]

ex vivo uptake bone (LNCaP (PSMA+) xenografts): 0.1±0.1 %ID g^−1
ex vivo uptake brain (LNCaP (PSMA+) xenografts): 0.0±0.0 %ID g^−1
ex vivo uptake heart (LNCaP (PSMA+) xenografts): 0.2±0.0 %ID g^−1
ex vivo uptake kidney (LNCaP (PSMA+) xenografts): 69.1±21.1 %ID g^−1
ex vivo uptake large intestine (LNCaP (PSMA+) xenografts): 0.7±0.9 %ID g^−1
ex vivo uptake liver (LNCaP (PSMA+) xenografts): 0.2±0.3 %ID g^−1
ex vivo uptake lungs (LNCaP (PSMA+) xenografts): 1.1±0.4 %ID g^−1
ex vivo uptake muscles (LNCaP (PSMA+) xenografts): 0.2±0.1 %ID g^−1
ex vivo uptake pancreas (LNCaP (PSMA+) xenografts): 0.6±0.6 %ID g^−1
ex vivo uptake plasma (LNCaP (PSMA+) xenografts): 1.0±0.5 %ID g^−1
ex vivo uptake salivary glands (LNCaP (PSMA+) xenografts): 0.9±0.4 %ID g^−1
ex vivo uptake small intestine (LNCaP (PSMA+) xenografts): 0.5±0.6 %ID g^−1
ex vivo uptake spleen (LNCaP (PSMA+) xenografts): 15.9±7.3 %ID g^−1
ex vivo uptake stomach (LNCaP (PSMA+) xenografts): 0.4±0.2 %ID g^−1
ex vivo uptake tumor (LNCaP (PSMA+) xenografts): 6.8±6.3 %ID g^−1
ex vivo uptake urine (LNCaP (PSMA+) xenografts): 45.4±30.8 %ID g^−1
ex vivo uptake whole blood (LNCaP (PSMA+) xenografts): 2.2±3.8 %ID g^−1
Structure (SMILES): O=C([O-])CN(CCN(CC(=O)[O-])Cc1cc(CCC(=O)NCCCCCC(=O)NCCCC[C@H](NC(=O)N[C@@H](CCC(=O)O)C(=O)O)C(=O)O)ccc1[O-])Cc1cc(CCC(=O)O)ccc1[O-].[68Ga+3].[OH3+] [[^68Ga]PSMA‐11, reference compound]

Structure (SMILES): O=C(O)CC[C@H](NC(=O)N[C@@H](CCCCNC(=O)[C@H](Cc1ccc2ccccc2c1)NC(=O)c1ccc(CNC(=O)[C@H](CCC(=O)O)NC(=O)[C@H](CCC(=O)O)NC(=O)c2ccc([18F])nc2)cc1)C(=O)O)C(=O)O [[^18F]PSMA‐1007]
LNCaP tumor uptake (LNCaP tumor): 8.04±2.4 %ID g^−1

logD [3]: -3.22 ± 0.1
Structure (SMILES): O=C(O)CC[C@H](NC(=O)N[C@@H](CCCCNC(=O)c1ccc(-c2cn(CCOCCOCCOc3ccc(CC[18F])cc3)nn2)cc1)C(=O)O)C(=O)O [[^18F]PSMA‐MIC02]
